Assay results from patent US20150225454A1, “TETRABRANCHED PEPTIDES AND ANALOGUES AS A NEW CLASS OF ANTIMICROBIALS AND THEIR PREPARATION THEREOF” (priority 2012, published 2015).
Where a SMILES comes first, the peptide text is derived from it. Bridges are numbered along the chain shown (N, C = ends). Roman numbers before positions name the chains, in order.

System: IOBA-NHC cells
Assay type: cell-based, human
Conditions: 24 h
Procedure: IOBA-NHC cells were cultured under standard conditions (humidified atmosphere of 5% CO2 at 37° C.) in DMEM/F12 supplemented with 1 μg/ml bovine pancreas insulin, 2 ng/ml mouse epidermal growth factor, 0.1 μg/ml cholera toxin, […] hydrocortisone, 10% fetal bovine serum (FBS), 50 UI/ml penicillin, and 50 UI/ml streptomycin. Cells from passages 50-80 were used in all experiments. Every day, normal culture development was observed by phase-contrast microscopy. Cells were removed by gentle trypsin incubation at confluence and counted. They were seeded into 96 well culture plates (Corning, Schiphol-Rijk, The Netherlands) for microtitration analysis of flow cytotoxicity assay (˜10,000 cells/well). Cultures were kept at 37° C. for 24 h. Subconfluent cells (culture surface covering nearly 70%) were then exposed to various peptide concentrations (0.22-225 μM). Cytotoxicity was measured periodically using MultiTox-Fluor Multiplex assay kit (Promega, Wis., USA) by measuring the AFC fluorescence (λex=485 and λem=520 nm).

Structure (SMILES) | EC50 [µM]
CC(C)[C@H](NC(=O)[C@H](C)NC(=O)[C@H](C)NC(=O)[C@H](C)NC(=O)CNC(=O)[C@@H](N)CCCNC(=N)N)C(=O)N[C@@H](CCCNC(=N)N)C(=O)N[C@@H](CCCNC(=N)N)C(=O)NCCCC[C@H](NC(=O)[C@H](CCCNC(=N)N)NC(=O)[C@H](CCCNC(=N)N)NC(=O)[C@@H](NC(=O)[C@H](C)NC(=O)[C@H](C)NC(=O)[C@H](C)NC(=O)CNC(=O)[C@@H](N)CCCNC(=N)N)C(C)C)C(=O)NCCCC[C@H](NC(=O)[C@H](CCCCNC(=O)[C@H](CCCNC(=N)N)NC(=O)[C@H](CCCNC(=N)N)NC(=O)[C@@H](NC(=O)[C@H](C)NC(=O)[C@H](C)NC(=O)[C@H](C)NC(=O)CNC(=O)[C@@H](N)CCCNC(=N)N)C(C)C)NC(=O)[C@H](CCCNC(=N)N)NC(=O)[C@H](CCCNC(=N)N)NC(=O)[C@@H](NC(=O)[C@H](C)NC(=O)[C@H](C)NC(=O)[C@H](C)NC(=O)CNC(=O)[C@@H](N)CCCNC(=N)N)C(C)C)C(=O)N[C@@H](CCCCN)C(=O)O [[(SEQ ID NO: 14)2K]2KK] (I: H-RGAAAVRRKKK-OH / II: H-RGAAAVRRK / III: H-RGAAAVRR / IV: H-RGAAAVRR; amide I:9-IV:C, I:10-II:C, II:9-III:C; N-terminus and C-terminus assumed) | > 257
C[C@H](NC(=O)CNC(=O)[C@@H](N)CCCNC(=N)N)C(=O)N[C@@H](CCCCN)C(=O)N[C@@H](C)C(=O)N[C@@H](C)C(=O)N[C@@H](CCCNC(=N)N)C(=O)N[C@@H](CCCNC(=N)N)C(=O)NCCCC[C@H](NC(=O)[C@H](CCCNC(=N)N)NC(=O)[C@H](CCCNC(=N)N)NC(=O)[C@H](C)NC(=O)[C@H](C)NC(=O)[C@H](CCCCN)NC(=O)[C@H](C)NC(=O)CNC(=O)[C@@H](N)CCCNC(=N)N)C(=O)NCCCC[C@H](NC(=O)[C@H](CCCCNC(=O)[C@H](CCCNC(=N)N)NC(=O)[C@H](CCCNC(=N)N)NC(=O)[C@H](C)NC(=O)[C@H](C)NC(=O)[C@H](CCCCN)NC(=O)[C@H](C)NC(=O)CNC(=O)[C@@H](N)CCCNC(=N)N)NC(=O)[C@H](CCCNC(=N)N)NC(=O)[C@H](CCCNC(=N)N)NC(=O)[C@H](C)NC(=O)[C@H](C)NC(=O)[C@H](CCCCN)NC(=O)[C@H](C)NC(=O)CNC(=O)[C@@H](N)CCCNC(=N)N)C(=O)N[C@@H](CCCCN)C(=O)O [[(SEQ ID NO: 15)2K]2KK] (I: H-RGAKAARRKKK-OH / II: H-RGAKAARRK / III: H-RGAKAARR / IV: H-RGAKAARR; amide I:9-IV:C, I:10-II:C, II:9-III:C; N-terminus and C-terminus assumed) | > 250
C[C@H](NC(=O)CNC(=O)[C@@H](N)CCCNC(=N)N)C(=O)N[C@@H](C)C(=O)N[C@@H](C)C(=O)N[C@@H](C)C(=O)N[C@@H](CCCNC(=N)N)C(=O)N[C@@H](CCCNC(=N)N)C(=O)NCCCC[C@H](NC(=O)[C@H](CCCNC(=N)N)NC(=O)[C@H](CCCNC(=N)N)NC(=O)[C@H](C)NC(=O)[C@H](C)NC(=O)[C@H](C)NC(=O)[C@H](C)NC(=O)CNC(=O)[C@@H](N)CCCNC(=N)N)C(=O)NCCCC[C@H](NC(=O)[C@H](CCCCNC(=O)[C@H](CCCNC(=N)N)NC(=O)[C@H](CCCNC(=N)N)NC(=O)[C@H](C)NC(=O)[C@H](C)NC(=O)[C@H](C)NC(=O)[C@H](C)NC(=O)CNC(=O)[C@@H](N)CCCNC(=N)N)NC(=O)[C@H](CCCNC(=N)N)NC(=O)[C@H](CCCNC(=N)N)NC(=O)[C@H](C)NC(=O)[C@H](C)NC(=O)[C@H](C)NC(=O)[C@H](C)NC(=O)CNC(=O)[C@@H](N)CCCNC(=N)N)C(=O)N[C@@H](CCCCN)C(=O)O [[(SEQ ID NO: 17)2K]2KK] (I: H-RGAAAARRKKK-OH / II: H-RGAAAARRK / III: H-RGAAAARR / IV: H-RGAAAARR; amide I:9-IV:C, I:10-II:C, II:9-III:C; N-terminus and C-terminus assumed) | > 265
C[C@H](NC(=O)[C@H](C)NC(=O)[C@H](CCCCN)NC(=O)[C@H](CCCNC(=N)N)NC(=O)CNC(=O)[C@@H](N)CCCNC(=N)N)C(=O)N[C@@H](CCCNC(=N)N)C(=O)N[C@@H](CCCNC(=N)N)C(=O)NCCCC[C@H](NC(=O)[C@H](CCCNC(=N)N)NC(=O)[C@H](CCCNC(=N)N)NC(=O)[C@H](C)NC(=O)[C@H](C)NC(=O)[C@H](CCCCN)NC(=O)[C@H](CCCNC(=N)N)NC(=O)CNC(=O)[C@@H](N)CCCNC(=N)N)C(=O)NCCCC[C@H](NC(=O)[C@H](CCCCNC(=O)[C@H](CCCNC(=N)N)NC(=O)[C@H](CCCNC(=N)N)NC(=O)[C@H](C)NC(=O)[C@H](C)NC(=O)[C@H](CCCCN)NC(=O)[C@H](CCCNC(=N)N)NC(=O)CNC(=O)[C@@H](N)CCCNC(=N)N)NC(=O)[C@H](CCCNC(=N)N)NC(=O)[C@H](CCCNC(=N)N)NC(=O)[C@H](C)NC(=O)[C@H](C)NC(=O)[C@H](CCCCN)NC(=O)[C@H](CCCNC(=N)N)NC(=O)CNC(=O)[C@@H](N)CCCNC(=N)N)C(=O)N[C@@H](CCCCN)C(=O)O [[(SEQ ID NO: 13)2K]2KK] (I: H-RGRKAARRKKK-OH / II: H-RGRKAARRK / III: H-RGRKAARR / IV: H-RGRKAARR; amide I:9-IV:C, I:10-II:C, II:9-III:C; N-terminus and C-terminus assumed) | 46
C[C@H](NC(=O)[C@H](C)NC(=O)[C@H](C)NC(=O)[C@H](C)NC(=O)[C@H](CCCCN)NC(=O)[C@H](CCCNC(=N)N)NC(=O)CNC(=O)[C@@H](N)CCCNC(=N)N)C(=O)NCCCC[C@H](NC(=O)[C@H](C)NC(=O)[C@H](C)NC(=O)[C@H](C)NC(=O)[C@H](C)NC(=O)[C@H](CCCCN)NC(=O)[C@H](CCCNC(=N)N)NC(=O)CNC(=O)[C@@H](N)CCCNC(=N)N)C(=O)NCCCC[C@H](NC(=O)[C@H](CCCCNC(=O)[C@H](C)NC(=O)[C@H](C)NC(=O)[C@H](C)NC(=O)[C@H](C)NC(=O)[C@H](CCCCN)NC(=O)[C@H](CCCNC(=N)N)NC(=O)CNC(=O)[C@@H](N)CCCNC(=N)N)NC(=O)[C@H](C)NC(=O)[C@H](C)NC(=O)[C@H](C)NC(=O)[C@H](C)NC(=O)[C@H](CCCCN)NC(=O)[C@H](CCCNC(=N)N)NC(=O)CNC(=O)[C@@H](N)CCCNC(=N)N)C(=O)N[C@@H](CCCCN)C(=O)O [[(SEQ ID NO: 18)2K]2KK] (I: H-RGRKAAAAKKK-OH / II: H-RGRKAAAAK / III: H-RGRKAAAA / IV: H-RGRKAAAA; amide I:9-IV:C, I:10-II:C, II:9-III:C; N-terminus and C-terminus assumed) | > 273
CC(C)[C@H](NC(=O)[C@H](C)NC(=O)[C@H](CCCCN)NC(=O)[C@H](CCCNC(=N)N)NC(=O)CNC(=O)[C@@H](N)CCCNC(=N)N)C(=O)N[C@@H](CCCNC(=N)N)C(=O)N[C@@H](CCCNC(=N)N)C(=O)NCCCC[C@H](NC(=O)[C@H](CCCNC(=N)N)NC(=O)[C@H](CCCNC(=N)N)NC(=O)[C@@H](NC(=O)[C@H](C)NC(=O)[C@H](CCCCN)NC(=O)[C@H](CCCNC(=N)N)NC(=O)CNC(=O)[C@@H](N)CCCNC(=N)N)C(C)C)C(=O)NCCCC[C@H](NC(=O)[C@H](CCCCNC(=O)[C@H](CCCNC(=N)N)NC(=O)[C@H](CCCNC(=N)N)NC(=O)[C@@H](NC(=O)[C@H](C)NC(=O)[C@H](CCCCN)NC(=O)[C@H](CCCNC(=N)N)NC(=O)CNC(=O)[C@@H](N)CCCNC(=N)N)C(C)C)NC(=O)[C@H](CCCNC(=N)N)NC(=O)[C@H](CCCNC(=N)N)NC(=O)[C@@H](NC(=O)[C@H](C)NC(=O)[C@H](CCCCN)NC(=O)[C@H](CCCNC(=N)N)NC(=O)CNC(=O)[C@@H](N)CCCNC(=N)N)C(C)C)C(=O)N[C@@H](CCCCN)C(=O)O [Peptide B4010-V5A] (I: H-RGRKAVRRKKK-OH / II: H-RGRKAVRRK / III: H-RGRKAVRR / IV: H-RGRKAVRR; amide I:9-IV:C, I:10-II:C, II:9-III:C) | 190
